Assay [1] has as its target T1, Alpha-1D adrenergic receptor (Homo sapiens, UniProt P25100).
T1 sequence (P25100 whole entry): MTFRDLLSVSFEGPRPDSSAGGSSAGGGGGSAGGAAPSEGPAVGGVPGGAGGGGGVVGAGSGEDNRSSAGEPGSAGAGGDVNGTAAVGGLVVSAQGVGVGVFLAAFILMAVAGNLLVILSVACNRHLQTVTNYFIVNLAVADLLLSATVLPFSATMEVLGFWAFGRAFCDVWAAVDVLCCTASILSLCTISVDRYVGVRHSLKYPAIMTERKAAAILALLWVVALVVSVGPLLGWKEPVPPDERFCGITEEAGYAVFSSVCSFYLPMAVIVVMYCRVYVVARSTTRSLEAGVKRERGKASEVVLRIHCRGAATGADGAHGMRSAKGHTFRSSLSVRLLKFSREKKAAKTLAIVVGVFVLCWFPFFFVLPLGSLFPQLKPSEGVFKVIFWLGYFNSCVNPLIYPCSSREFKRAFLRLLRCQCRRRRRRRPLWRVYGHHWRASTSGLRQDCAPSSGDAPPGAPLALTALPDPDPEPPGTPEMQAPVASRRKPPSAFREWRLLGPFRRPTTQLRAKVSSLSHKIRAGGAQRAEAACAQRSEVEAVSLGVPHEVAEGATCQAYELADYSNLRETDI

Assay [2] addresses T2, Alpha-2A adrenergic receptor (Homo sapiens, UniProt P08913).
T2 sequence (P08913 whole entry): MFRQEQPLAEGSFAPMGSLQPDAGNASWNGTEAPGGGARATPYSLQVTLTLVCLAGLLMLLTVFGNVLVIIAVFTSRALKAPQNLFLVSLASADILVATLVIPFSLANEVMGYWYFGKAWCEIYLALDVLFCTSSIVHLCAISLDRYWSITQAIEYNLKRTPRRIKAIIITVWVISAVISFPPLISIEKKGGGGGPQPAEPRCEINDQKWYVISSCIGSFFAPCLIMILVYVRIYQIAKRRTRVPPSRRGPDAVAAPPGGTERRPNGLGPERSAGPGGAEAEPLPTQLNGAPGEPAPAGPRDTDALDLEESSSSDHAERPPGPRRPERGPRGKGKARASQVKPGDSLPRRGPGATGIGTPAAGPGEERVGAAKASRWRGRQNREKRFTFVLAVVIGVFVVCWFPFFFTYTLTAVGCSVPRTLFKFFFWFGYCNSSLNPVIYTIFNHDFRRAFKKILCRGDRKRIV

Assay [3] concerns the target T3, Amine oxidase [flavin-containing] A (Rattus norvegicus, UniProt P21396).
T3 sequence (P21396 whole entry): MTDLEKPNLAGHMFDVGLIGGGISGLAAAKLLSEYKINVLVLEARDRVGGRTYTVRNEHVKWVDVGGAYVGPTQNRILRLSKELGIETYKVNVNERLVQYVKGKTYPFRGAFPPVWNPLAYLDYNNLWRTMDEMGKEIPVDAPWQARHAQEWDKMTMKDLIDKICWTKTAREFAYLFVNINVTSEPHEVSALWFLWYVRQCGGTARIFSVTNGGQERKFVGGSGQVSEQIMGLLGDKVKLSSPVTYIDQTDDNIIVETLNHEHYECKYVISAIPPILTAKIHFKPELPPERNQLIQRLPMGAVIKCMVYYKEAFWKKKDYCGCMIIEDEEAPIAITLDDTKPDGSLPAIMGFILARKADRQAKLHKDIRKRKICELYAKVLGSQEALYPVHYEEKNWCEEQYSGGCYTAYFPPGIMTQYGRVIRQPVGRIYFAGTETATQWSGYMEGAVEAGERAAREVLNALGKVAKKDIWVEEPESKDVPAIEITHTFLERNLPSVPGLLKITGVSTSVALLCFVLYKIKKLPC

Assay [4] concerns the target D(2) dopamine receptor (Rattus norvegicus, UniProt P61169).
Assay [5] concerns the target T4, Alpha-2C adrenergic receptor (Rattus norvegicus, UniProt P22086).
T4 sequence (P22086 whole entry): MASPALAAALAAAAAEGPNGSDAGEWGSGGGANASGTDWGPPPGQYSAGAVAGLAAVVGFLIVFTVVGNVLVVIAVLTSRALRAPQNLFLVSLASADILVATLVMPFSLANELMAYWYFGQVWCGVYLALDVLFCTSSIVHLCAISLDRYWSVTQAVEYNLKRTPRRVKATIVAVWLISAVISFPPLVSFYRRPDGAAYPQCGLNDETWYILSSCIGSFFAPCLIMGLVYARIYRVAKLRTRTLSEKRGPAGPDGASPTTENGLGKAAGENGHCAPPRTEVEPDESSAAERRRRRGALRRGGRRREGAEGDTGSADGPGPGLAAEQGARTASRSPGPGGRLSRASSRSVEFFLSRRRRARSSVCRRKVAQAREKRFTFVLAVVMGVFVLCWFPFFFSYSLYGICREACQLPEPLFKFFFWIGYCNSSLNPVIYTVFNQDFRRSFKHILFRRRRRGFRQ

The target of assay [6] is T5, Alpha-1A adrenergic receptor (Homo sapiens, UniProt P35348).
T5 sequence (P35348 whole entry): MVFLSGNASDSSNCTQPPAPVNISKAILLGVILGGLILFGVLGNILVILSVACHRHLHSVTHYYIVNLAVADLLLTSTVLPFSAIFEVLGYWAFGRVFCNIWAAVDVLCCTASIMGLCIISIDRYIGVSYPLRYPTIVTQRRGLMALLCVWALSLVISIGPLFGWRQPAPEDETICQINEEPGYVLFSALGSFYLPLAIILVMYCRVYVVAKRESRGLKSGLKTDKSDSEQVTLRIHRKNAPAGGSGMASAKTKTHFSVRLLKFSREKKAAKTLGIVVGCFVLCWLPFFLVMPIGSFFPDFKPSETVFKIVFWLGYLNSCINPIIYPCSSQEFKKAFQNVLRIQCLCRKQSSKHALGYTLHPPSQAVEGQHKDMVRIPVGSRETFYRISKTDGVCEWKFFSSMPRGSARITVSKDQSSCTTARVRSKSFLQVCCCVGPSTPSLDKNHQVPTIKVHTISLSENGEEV

Assay [7] concerns the target Beta-2 adrenergic receptor (Homo sapiens, UniProt P07550).
In assay [8] the target is D(2) dopamine receptor (Homo sapiens, UniProt P14416).
D(2) dopamine receptor (Homo sapiens, UniProt P14416), sequence (P14416 whole entry): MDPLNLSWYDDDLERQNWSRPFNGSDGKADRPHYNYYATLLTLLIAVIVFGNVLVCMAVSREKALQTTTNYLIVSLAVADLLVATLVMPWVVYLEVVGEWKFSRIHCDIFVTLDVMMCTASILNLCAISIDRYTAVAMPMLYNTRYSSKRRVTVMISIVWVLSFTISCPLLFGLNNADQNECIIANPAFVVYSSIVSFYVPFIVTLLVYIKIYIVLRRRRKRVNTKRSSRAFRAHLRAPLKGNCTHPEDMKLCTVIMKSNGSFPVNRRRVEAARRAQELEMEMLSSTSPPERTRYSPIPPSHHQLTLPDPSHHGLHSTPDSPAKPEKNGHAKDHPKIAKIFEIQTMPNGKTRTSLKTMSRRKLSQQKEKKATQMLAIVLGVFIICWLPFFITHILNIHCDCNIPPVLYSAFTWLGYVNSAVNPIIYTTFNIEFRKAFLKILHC
Assay [9] has as its target Sodium-dependent noradrenaline transporter (Homo sapiens, UniProt P23975).
Assay [10] deals with Norepinephrine transporter (Rattus norvegicus, UniProt Q9JIA2).
Assay [11] concerns the target T6, Alpha-2C adrenergic receptor (Homo sapiens, UniProt P18825).
T6 sequence (P18825 whole entry): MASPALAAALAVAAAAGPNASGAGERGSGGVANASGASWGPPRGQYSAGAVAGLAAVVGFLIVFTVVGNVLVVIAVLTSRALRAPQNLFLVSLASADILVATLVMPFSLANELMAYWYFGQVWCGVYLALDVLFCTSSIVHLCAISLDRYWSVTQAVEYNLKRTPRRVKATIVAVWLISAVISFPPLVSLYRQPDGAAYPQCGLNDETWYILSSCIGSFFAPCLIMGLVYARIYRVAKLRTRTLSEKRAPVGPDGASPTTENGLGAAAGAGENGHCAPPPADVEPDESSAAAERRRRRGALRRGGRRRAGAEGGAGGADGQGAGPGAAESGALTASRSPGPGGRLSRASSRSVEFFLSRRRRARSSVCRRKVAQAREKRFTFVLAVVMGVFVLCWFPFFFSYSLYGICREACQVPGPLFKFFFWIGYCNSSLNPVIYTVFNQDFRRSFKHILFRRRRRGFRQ

Assay [12] concerns the target T7, Amine oxidase [flavin-containing] B (Rattus norvegicus, UniProt P19643).
T7 sequence (P19643 whole entry): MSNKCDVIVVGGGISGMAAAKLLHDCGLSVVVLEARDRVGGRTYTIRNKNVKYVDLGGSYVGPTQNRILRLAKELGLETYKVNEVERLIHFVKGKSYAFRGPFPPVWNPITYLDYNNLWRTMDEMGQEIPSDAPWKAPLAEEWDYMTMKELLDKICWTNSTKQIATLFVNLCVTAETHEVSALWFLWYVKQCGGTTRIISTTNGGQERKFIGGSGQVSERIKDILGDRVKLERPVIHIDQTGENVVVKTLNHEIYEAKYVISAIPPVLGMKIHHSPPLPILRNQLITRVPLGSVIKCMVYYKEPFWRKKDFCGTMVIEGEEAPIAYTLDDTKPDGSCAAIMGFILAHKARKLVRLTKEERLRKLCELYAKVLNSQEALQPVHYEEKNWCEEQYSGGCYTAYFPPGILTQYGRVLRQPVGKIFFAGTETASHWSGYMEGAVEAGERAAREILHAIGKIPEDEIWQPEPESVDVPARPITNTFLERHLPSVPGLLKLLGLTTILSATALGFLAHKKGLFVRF

The target in assay [13] is T8, Alpha-1B adrenergic receptor (Homo sapiens, UniProt P35368).
T8 sequence (P35368 whole entry): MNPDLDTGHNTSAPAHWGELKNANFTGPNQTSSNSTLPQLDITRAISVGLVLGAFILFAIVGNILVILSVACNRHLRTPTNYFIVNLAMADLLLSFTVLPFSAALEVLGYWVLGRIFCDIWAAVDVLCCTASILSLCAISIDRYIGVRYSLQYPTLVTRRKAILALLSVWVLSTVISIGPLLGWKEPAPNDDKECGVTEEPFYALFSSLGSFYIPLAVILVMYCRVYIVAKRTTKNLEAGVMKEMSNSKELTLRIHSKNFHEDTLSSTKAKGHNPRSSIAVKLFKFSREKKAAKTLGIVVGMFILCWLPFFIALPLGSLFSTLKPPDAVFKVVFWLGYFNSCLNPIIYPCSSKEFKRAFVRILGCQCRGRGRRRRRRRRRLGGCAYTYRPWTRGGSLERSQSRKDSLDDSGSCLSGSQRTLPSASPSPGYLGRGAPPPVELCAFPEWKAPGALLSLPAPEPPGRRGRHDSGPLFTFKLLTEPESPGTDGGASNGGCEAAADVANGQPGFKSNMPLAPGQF

pKi: −log10 of the molar value.

Sodium-dependent noradrenaline transporter, sequence (P23975 whole entry): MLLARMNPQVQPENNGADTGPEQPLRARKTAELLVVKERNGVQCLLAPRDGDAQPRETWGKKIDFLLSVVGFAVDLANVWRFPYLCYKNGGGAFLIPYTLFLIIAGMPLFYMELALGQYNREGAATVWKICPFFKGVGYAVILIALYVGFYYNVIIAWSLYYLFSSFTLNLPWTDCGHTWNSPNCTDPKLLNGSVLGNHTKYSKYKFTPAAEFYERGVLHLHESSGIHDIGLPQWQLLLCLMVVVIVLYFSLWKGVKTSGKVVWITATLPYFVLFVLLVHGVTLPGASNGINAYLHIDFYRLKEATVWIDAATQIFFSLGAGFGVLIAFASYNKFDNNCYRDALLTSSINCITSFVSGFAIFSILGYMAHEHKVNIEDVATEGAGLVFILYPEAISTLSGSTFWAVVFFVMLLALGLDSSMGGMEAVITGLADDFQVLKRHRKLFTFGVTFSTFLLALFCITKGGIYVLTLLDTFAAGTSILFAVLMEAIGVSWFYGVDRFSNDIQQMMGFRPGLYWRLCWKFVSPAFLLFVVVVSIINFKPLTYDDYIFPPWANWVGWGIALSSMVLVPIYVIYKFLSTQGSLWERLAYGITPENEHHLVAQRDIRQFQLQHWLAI
D(2) dopamine receptor (Rattus norvegicus, UniProt P61169), sequence (P61169 whole entry): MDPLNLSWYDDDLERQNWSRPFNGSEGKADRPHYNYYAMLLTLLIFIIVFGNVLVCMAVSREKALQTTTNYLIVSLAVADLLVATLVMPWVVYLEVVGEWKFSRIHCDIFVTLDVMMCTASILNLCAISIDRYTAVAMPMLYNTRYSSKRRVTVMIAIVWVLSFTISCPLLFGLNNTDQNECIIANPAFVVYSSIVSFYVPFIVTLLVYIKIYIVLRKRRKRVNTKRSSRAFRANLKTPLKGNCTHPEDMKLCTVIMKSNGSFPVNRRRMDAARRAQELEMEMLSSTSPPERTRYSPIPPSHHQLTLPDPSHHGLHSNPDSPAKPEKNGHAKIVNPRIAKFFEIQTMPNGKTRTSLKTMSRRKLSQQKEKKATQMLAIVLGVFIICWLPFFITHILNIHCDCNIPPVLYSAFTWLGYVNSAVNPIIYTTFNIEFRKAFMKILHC
Beta-2 adrenergic receptor, sequence (P07550 whole entry): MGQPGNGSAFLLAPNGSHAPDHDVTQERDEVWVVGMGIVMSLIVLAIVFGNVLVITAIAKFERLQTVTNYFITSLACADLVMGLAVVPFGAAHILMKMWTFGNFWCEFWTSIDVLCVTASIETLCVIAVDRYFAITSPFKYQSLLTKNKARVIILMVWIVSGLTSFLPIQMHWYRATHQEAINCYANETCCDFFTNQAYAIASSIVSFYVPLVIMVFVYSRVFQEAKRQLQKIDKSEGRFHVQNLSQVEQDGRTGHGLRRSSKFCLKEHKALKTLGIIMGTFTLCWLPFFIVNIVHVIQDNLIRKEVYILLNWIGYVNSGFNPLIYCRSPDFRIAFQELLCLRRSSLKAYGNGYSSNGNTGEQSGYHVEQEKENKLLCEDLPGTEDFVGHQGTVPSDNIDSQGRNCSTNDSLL

The pKi is the negative decadic logarithm of the Ki, by convention in mol/L. For the compound `c1cnc(N2CCN(Cc3ccc4c(c3)OCO4)CC2)nc1` [NSC_4850], the negative-log Ki (pKi) in assay [1] is 6.66; in assay [2] it was 7.05; in [3] it was under 5.00; in assay [4] it was 6.74; in [5] it was 6.36; in assay [6], 6.09. The pKi is under 5.00 in assay [7]; 6.88 in [8]; under 5.00 in assay [9]; under 5.00 in [10]; 7.16 in assay [11]; under 5.00 in assay [12]. The compound also showed a pKi in [13] of 5.21.

The values are drawn from BindingDB's records for PubMed 11356907 (Institut De Recherches Servier, 2001).
